Measurements published in publication PMC10196118, “Evidence for broad cross-reactivity of the SARS-CoV-2 NSP12-directed CD4^+ T-cell response with pre-primed responses directed against common cold coronaviruses” (Frontiers in Immunology, 2023).

System: pre-cultured PBMCs (NSP12-specific T cells)
Assay: IFN-γ ELISpot with single 15-mer peptides after 11–13 days in vitro peptide-pool T-cell expansion
Assay type: cell-based, human
Conditions: for peptide-specific T-cell response, donor HH-N12-18, post COVID-19 / peptide-specific T-cell response, donor HH-N12-34, post COVID-19 / peptide-specific T-cell response, donor HH-N12-35, post COVID-19 / peptide-specific T-cell response, donor HH-N12-36, post COVID-19 / peptide-specific T-cell response, donor HH-N12-37, post COVID-19 / peptide-specific response, donor HH-N12-18, post COVID-19 / peptide-specific response, donor HH-N12-34, post COVID-19 / peptide-specific response, donor HH-N12-35, post COVID-19 / peptide-specific response, donor HH-N12-36, post COVID-19 / peptide-specific response, donor HH-N12-37, post COVID-19: sample post COVID-19; for peptide-specific T-cell response, donor HH-N12-18, post COVID-19 / peptide-specific T-cell response, donor HH-N12-18, pre COVID-19 / peptide-specific T-cell response, donor HH-N12-34, post COVID-19 / peptide-specific T-cell response, donor HH-N12-34, pre COVID-19 / peptide-specific T-cell response, donor HH-N12-35, post COVID-19 / peptide-specific T-cell response, donor HH-N12-35, pre COVID-19 / peptide-specific T-cell response, donor HH-N12-36, post COVID-19 / peptide-specific T-cell response, donor HH-N12-36, pre COVID-19 / peptide-specific T-cell response, donor HH-N12-37, post COVID-19 / peptide-specific T-cell response, donor HH-N12-37, pre COVID-19: single NSP12 15-mer peptide, 0 = no response; for peptide-specific T-cell response, donor HH-N12-18, pre COVID-19 / peptide-specific T-cell response, donor HH-N12-34, pre COVID-19 / peptide-specific T-cell response, donor HH-N12-35, pre COVID-19 / peptide-specific T-cell response, donor HH-N12-36, pre COVID-19 / peptide-specific T-cell response, donor HH-N12-37, pre COVID-19 / peptide-specific response, donor HH-N12-18, pre COVID-19 / peptide-specific response, donor HH-N12-34, pre COVID-19 / peptide-specific response, donor HH-N12-35, pre COVID-19 / peptide-specific response, donor HH-N12-36, pre COVID-19 / peptide-specific response, donor HH-N12-37, pre COVID-19: sample pre COVID-19; for peptide-specific response, donor HH-N12-18, post COVID-19 / peptide-specific response, donor HH-N12-18, pre COVID-19 / peptide-specific response, donor HH-N12-34, post COVID-19 / peptide-specific response, donor HH-N12-34, pre COVID-19 / peptide-specific response, donor HH-N12-35, post COVID-19 / peptide-specific response, donor HH-N12-35, pre COVID-19 / peptide-specific response, donor HH-N12-36, post COVID-19 / peptide-specific response, donor HH-N12-36, pre COVID-19 / peptide-specific response, donor HH-N12-37, post COVID-19 / peptide-specific response, donor HH-N12-37, pre COVID-19: single NSP12 15-mer peptides

Sequence	peptide-specific T-cell response, donor HH-N12-18, post COVID-19	peptide-specific T-cell response, donor HH-N12-18, pre COVID-19	peptide-specific T-cell response, donor HH-N12-34, post COVID-19	peptide-specific T-cell response, donor HH-N12-34, pre COVID-19	peptide-specific T-cell response, donor HH-N12-35, post COVID-19	peptide-specific T-cell response, donor HH-N12-35, pre COVID-19	peptide-specific T-cell response, donor HH-N12-36, post COVID-19	peptide-specific T-cell response, donor HH-N12-36, pre COVID-19	peptide-specific T-cell response, donor HH-N12-37, post COVID-19	peptide-specific T-cell response, donor HH-N12-37, pre COVID-19	peptide-specific response, donor HH-N12-18, post COVID-19	peptide-specific response, donor HH-N12-18, pre COVID-19	peptide-specific response, donor HH-N12-34, post COVID-19	peptide-specific response, donor HH-N12-34, pre COVID-19	peptide-specific response, donor HH-N12-35, post COVID-19	peptide-specific response, donor HH-N12-35, pre COVID-19	peptide-specific response, donor HH-N12-36, post COVID-19	peptide-specific response, donor HH-N12-36, pre COVID-19	peptide-specific response, donor HH-N12-37, post COVID-19	peptide-specific response, donor HH-N12-37, pre COVID-19
ASQGLVASIKNFKSV [compound 155]	0	0	0	0	0	0	0	0	0	0	–	–	–	–	–	–	–	–	–	–
DAVVCFNSTYASQGL [compound 153]	0	0	0	0	0	0	0	0	0	0	–	–	–	–	–	–	–	–	–	–
DFIQTTPGSGVPVVD [compound 45]	–	–	–	–	–	–	–	–	–	–	0	0	0	0.017	0	0	0	0	0	0
DIYNDKVAGFAKFLK [compound 8]	–	–	–	–	–	–	–	–	–	–	0	0	0	0	0	0	0	0	0	0
DLNGNWYDFGDFIQT [compound 43]	–	–	–	–	–	–	–	–	–	–	0.035	0	0	0	0	0	0	0.028	0	0
DQTYHPNCVNCLDDR [compound 59]	–	–	–	–	–	–	–	–	–	–	0	0	0	0	0	0	0	0.047	0	0
EDDNLIDSYFVVKRH [compound 13]	–	–	–	–	–	–	–	–	–	–	0	0	0	0	0	0	0	0	0	0
FFKFRIDGDMVPHIS [compound 21]	–	–	–	–	–	–	–	–	–	–	0	0	0	0	0	0	0	0	0	0
FQEKDEDDNLIDSYF [compound 12]	–	–	–	–	–	–	–	–	–	–	0	0	0	0	0	0	0	0	0	0
HVDTDLTKPYIKWDL [compound 52]	–	–	–	–	–	–	–	–	–	–	0	0	0	0	0	0	0	0	0.022	0
IDSYFVVKRHTFSNY [compound 14]	–	–	–	–	–	–	–	–	–	–	0	0	0	0	0	0	0	0	0	0
IYNLLKDCPAVAKHD [compound 18]	–	–	–	–	–	–	–	–	–	–	0	0	0	0	0	0	0	0	0.023	0
KDCPAVAKHDFFKFR [compound 19]	–	–	–	–	–	–	–	–	–	–	0	0	0	0	0	0	0	0	0	0
KLFDRYFKYWDQTYH [compound 57]	–	–	–	–	–	–	–	–	–	–	0	0	0	0	0	0	0.029	0	0	0
LKYDFTEERLKLFDR [compound 55]	–	–	–	–	–	–	–	–	–	–	0	0	0	0	0	0	0	0	0	0
LLKTVQFCDAMRNAG [compound 38]	–	–	–	–	–	–	–	–	–	–	0	0	0	0	0	0	0	0	0	0
LTAESHVDTDLTKPY [compound 51]	–	–	–	–	–	–	–	–	–	–	0	0	0	0	0	0	0	0.05	0	0
